Values quoted from earlier work as cited in patent US20160067273A1, “Compositions and methods for preparation of synthetic alpha-gal nanoparticles and for their clinical use” (priority 2014, published 2016).

Tested on: human natural anti-Gal antibody
Conditions: equilibrium dialysis

SMILES | fold by which affinity of anti-Gal to Galα1-3Galβ1-4GlcNAc is higher than the affinity to this carbohydrate | further results
OC[C@H]1O[C@H](O[C@H]2[C@@H](O)[C@@H](CO)O[C@@H](O[C@H]3[C@H](O)[C@@H](O)C(O)O[C@@H]3CO)[C@@H]2O)[C@H](O)[C@@H](O)[C@H]1O (some centres unmarked) [Galα1-3Galβ1-4Glc] |  | affinity of anti-Gal lower than that to Galα1-3Galβ1-4GlcNAc: approximately 30%
CC(=O)N[C@H]1C(O)O[C@H](CO)[C@@H](O[C@@H]2O[C@H](CO)[C@H](O)[C@H](O[C@H]3O[C@H](CO)[C@H](O)[C@H](O)[C@H]3O)[C@H]2O)[C@@H]1O (some centres unmarked) [Galα1-3Galβ1-4GlcNAc] |  | affinity (strength of binding) of anti-Gal to synthetic free oligosaccharide, rank: highest
CO[C@@H]1O[C@H](CO)[C@H](O)[C@H](O)[C@H]1O [methyl-galactoside] | 300 fold | 
OC[C@H]1O[C@H](O[C@H]2[C@@H](O)[C@@H](CO)OC(O)[C@@H]2O)[C@H](O)[C@@H](O)[C@H]1O (some centres unmarked) [Galα1-3Gal] | 10 fold | 
OC[C@H]1O[C@H](OCC2O[C@@H](O)[C@H](O)[C@@H](O)[C@@H]2O)[C@H](O)[C@@H](O)[C@H]1O (some centres unmarked) [melibiose, Galα1-6Glc] | 300 fold | 
